Experimental data published in PMC5695911 (Cell Reports, 2017).
Where two headings read alike, the source gives them in different places.

How the values were obtained:
[1] = tested on: INS1 cells; experiment: cAMP accumulation in cultured rat β cells; format: cell-based
[2] = tested on: isolated rat pancreases; experiment: Isolated perfused rat pancreas, insulin secretion
[3] = tested on: protein kinase A (PKA), glucose-6-phosphatase (G6P), phosphorylase kinase (PKC-1), glycogen phosphorylase (GP), phosphoenolpyruvate carboxykinase (PECK); format: cell-based, human
[4] = tested on: diabetic animal models (db/db and ob/ob mice); experiment: Administration of PG 1-61 to diabetic animal models; format: in vivo; settings: 1 pmol; db/db (12 weeks, n=5) and ob/ob mice (14-15 weeks, n=3)
[5] = tested on: rats; settings: i.v., 1 pmol, 20 min
[6] = tested on: INS1 cells; format: cell-based, rat
[7] = tested on: human glucagon-like peptide 1 receptor (hGLP-1R); format: cell-based; settings: COS-7 cells
[8] = tested on: human glucagon receptor (hGCGR); format: cell-based
[9] = tested on: cultured human hepatocytes (HepG2); experiment: cAMP in cultured human hepatocytes; format: cell-based

## RSLQDTEEKSRSFSASQADPLSDPDQMNEDKRHSQGTFTSDYSKYLDSRRAQDFVQWLMNT [PG 1-61]
[1]
  accumulation of cAMP: dose-dependently increased accumulation of cAMP
[2]
  insulin secretion, tAUC: 3,534 ± 321 min × pM
[3]; 30-min incubation, 1,000 pM
  protein levels of PKA, G6P, PKC-1, GP and PECK: significantly increased protein levels
[3]; 3 hr incubation, compared with 30 min
  protein levels of PKA, G6P, PKC-1, GP and PECK: more pronounced effects
[3]; siRNA GCGR-treated cells, 30-min incubation
  protein levels of the enzymes in siRNA-treated cells: tended to be lower
[4]
  inhibition of glucagon secretion in diabetic animals: not seem to inhibit the secretion of glucagon
[5]
  blood glucose, in words: increased significantly
  plasma amino acids (summed molarity): decreased significantly
[5]; no increase with mannitol
  plasma insulin: increased transiently
[6]; 1 nM, p < 0.001
  insulin release compared to PBS: significantly stimulated insulin release
[6]; 1 nM, p < 0.01
  PG 1-61-induced insulin secretion after siRNA knockdown of rGCGR vs mock: significantly blunted
[6]; PG 1-61 1 nM
  insulin release compared to native glucagon: comparable to that of native glucagon
[7]
  agonist class / potency in words at hGLP-1R: very low potency
[7]; Figure 3B legend
  activation of hGLP-1R, in words: but not the human glucagon-like peptide 1 receptor (hGLP-1R)
[7]; at a concentration of 1 μM
  percent of Emax of GLP-1 reached at 1 μM, hGLP-1R: 38%
[8]; from LogEC50 vs glucagon
  fold decreased potency compared to native glucagon, hGCGR: 100 fold
[8]; transiently transfected COS-7 cells
  agonist class at hGCGR: full agonist
[9]; HepG2, siRNA GCGR
  stimulated increase in cAMP after siRNA knockdown of hGCGR vs siRNA control: attenuated
[9]; HepG2, 10–1,000 pM
  cAMP: stimulated cAMP production dose-dependently
